From ChEMBL document CHEMBL5244262, “Discovery and optimization of benzenesulfonamides-based hepatitis B virus capsid modulators via contemporary medicinal chemistry strategies” (Eur J Med Chem, 2020)
Values belong to the molecule of their own block, whether it stands above or below them.

Legend:
[1] = test system: Hepatitis B virus; assay: Ratio of EC50 for antiviral activity against HBV harboring core protein T33S mutant to EC50 for antiviral activity against HBV harboring wild type core protein; format: functional
[2] = test system: Hepatitis B virus; assay: Ratio of EC50 for antiviral activity against HBV harboring core protein P25A mutant to EC50 for antiviral activity against HBV harboring wild type core protein; format: functional
[3] = test system: Hepatitis B virus; assay: Antiviral activity against HBV harboring core protein T33Q mutant; format: functional, organism-based
[4] = test system: Hepatitis B virus; assay: Ratio of EC50 for antiviral activity against HBV harboring core protein V124F mutant to EC50 for antiviral activity against HBV harboring wild type core protein; format: functional
[5] = test system: Hepatitis B virus; assay: Antiviral activity against HBV harboring core protein T33S mutant; format: functional, organism-based
[6] = test system: Hepatitis B virus; assay: Antiviral activity against HBV harboring wild type core protein; format: functional, organism-based
[7] = test system: Hepatitis B virus; assay: Antiviral activity against HBV harboring core protein P25G mutant; format: functional, organism-based
[8] = test system: Hepatitis B virus; assay: Ratio of EC50 for antiviral activity against HBV harboring core protein P25S mutant to EC50 for antiviral activity against HBV harboring wild type core protein; format: functional
[9] = test system: Hepatitis B virus; assay: Antiviral activity against HBV harboring core protein V124I mutant; format: functional, organism-based
[10] = test system: Hepatitis B virus; assay: Antiviral activity against HBV harboring core protein P25S mutant; format: functional, organism-based
[11] = test system: Hepatitis B virus; assay: Ratio of EC50 for antiviral activity against HBV harboring core protein T33Q mutant to EC50 for antiviral activity against HBV harboring wild type core protein; format: functional
[12] = test system: Hepatitis B virus; assay: Ratio of EC50 for antiviral activity against HBV harboring core protein T33N mutant to EC50 for antiviral activity against HBV harboring wild type core protein; format: functional
[13] = test system: Hepatitis B virus; assay: Antiviral activity against HBV harboring core protein T33N mutant; format: functional, organism-based
[14] = test system: Hepatitis B virus; assay: Ratio of EC50 for antiviral activity against HBV harboring core protein V124I mutant to EC50 for antiviral activity against HBV harboring wild type core protein; format: functional
[15] = test system: Hepatitis B virus; assay: Antiviral activity against HBV harboring core protein P25A mutant; format: functional, organism-based
[16] = test system: Hepatitis B virus; assay: Ratio of EC50 for antiviral activity against HBV harboring core protein P25G mutant to EC50 for antiviral activity against HBV harboring wild type core protein; format: functional
[17] = test system: Hepatitis B virus; assay: Antiviral activity against HBV harboring core protein V124F mutant; format: functional, organism-based
[18] = test system: Hepatitis B virus; assay: Antiviral activity against Hepatitis B virus infected in HePAD38 cells; format: functional, organism-based
[19] = Selectivity index, ratio of CC50 for human HePAD38 cells to EC50 for antiviral activity against Hepatitis B virus infected in HePAD38 cells; format: toxicity, cell-based; conditions: read-out: Ratio CC50/EC50
[20] = test system: Hepatitis B virus; assay: Antiviral activity against Hepatitis B virus harboring rtL180M/M204V/N236T transfected in HepG2 cells; format: functional, organism-based
[21] = test system: Hepatitis B virus; assay: Antiviral activity against Hepatitis B virus harboring rtA181V/N236T transfected in HepG2 cells; format: functional, organism-based
[22] = test system: Hepatitis B virus; assay: Antiviral activity against Hepatitis B virus harboring rtN236T transfected in HepG2 cells; format: functional, organism-based
[23] = test system: Hepatitis B virus; assay: Antiviral activity against Hepatitis B virus harboring rtL180M/M204V transfected in HepG2 cells; format: functional, organism-based
[24] = test system: Hepatitis B virus; assay: Antiviral activity against Hepatitis B virus infected in HepG2.2.15 cells; format: functional, organism-based
[25] = Cytotoxicity against human HePAD38 cells; format: toxicity, cell-based
[26] = Oral bioavailability in mouse; format: ADME, organism-based; conditions: in vivo
[27] = test system: Hepatitis B virus; assay: Antiviral activity against Hepatitis B virus harboring rtA181V transfected in HepG2 cells; format: functional, organism-based
[28] = test system: Hepatitis B virus; assay: Antiviral activity against Hepatitis B virus infected in primary hepatocytes; format: functional, organism-based; conditions: Hepatocyte
[29] = Cytotoxicity against human HepG2.2.15 cells; format: toxicity, cell-based, HepG2 2.2.15
[30] = Cytotoxicity in human primary hepatocytes; format: toxicity, cell-based, Hepatocyte
[31] = Cytotoxicity against human HepBHAe82 cells; format: toxicity, cell-based
[32] = test system: Hepatitis B virus; assay: Antiviral activity against Hepatitis B virus infected in HepBHAe82 cells; format: functional, organism-based
[33] = Cytotoxicity against mouse AML12HBV10; format: toxicity, cell-based; conditions: AML12HBV10 cells
[34] = test system: Hepatitis B virus; assay: Antiviral activity against Hepatitis B virus infected in AML12HBV10 cells; format: functional, organism-based
[35] = Cytotoxicity against human HepDE19 cells; format: functional
[36] = test system: Hepatitis B virus; assay: Antiviral activity against Hepatitis B virus infected in HepDE19 cells; format: functional, organism-based
[37] = test system: Hepatitis B virus; assay: Antiviral activity against Hepatitis B virus infected in HepDES19 cells; format: functional, organism-based
[38] = Cytotoxicity against human HepDES19 cells; format: toxicity, cell-based
[39] = Oral bioavailability in CD1 mouse; format: ADME, organism-based; conditions: in vivo
[40] = test system: Hepatitis B virus; assay: Antiviral activity against Hepatitis B virus infected in HePAD38 cells assessed as reduction in HBeAg production; format: functional, organism-based
[41] = Half life in mouse plasma; format: ADME, cell-free
[42] = Half life in dog plasma; format: ADME, cell-free, Canis lupus familiaris
[43] = Half life in human plasma; format: ADME, cell-free
[44] = test system: Hepatitis B virus; assay: Antiviral activity against Hepatitis B virus assessed as inhibition of nucleocapsid assembly; format: functional, organism-based

SMILES: COC(=O)C1=C(CN2CC(F)(F)C[C@H]2C(=O)O)NC(c2nccs2)=N[C@H]1c1ccc(F)cc1Cl
Ratio [1]: 1.8
Ratio [2]: 8.1
EC50 [3]: 1970 nM
Ratio [4]: 11.9
EC50 [5]: 162 nM
EC50 [6]: 91 nM
EC50 [7]: 1380 nM
Ratio [8]: 9.9
EC50 [9]: 9 nM
EC50 [10]: 902 nM
Ratio [11]: 21.7
Ratio [12]: 38.1
EC50 [13]: 3470 nM
Ratio [14]: 0.1
EC50 [15]: 735 nM
Ratio [16]: 15.2
EC50 [17]: 1090 nM

SMILES: O=C(Nc1cc(F)c(F)c(F)c1)c1ccc(F)c(S(=O)(=O)N2CCC(O)CC2)c1
Ratio [1]: 2.3
EC50 [18]: 330 nM
selectivity ratio [19]: 15.6
EC50 [20]: 820 nM
Ratio [2]: 2.3
EC50 [21]: 820 nM
EC50 [3]: > 5000 nM
Ratio [4]: 0.7
EC50 [22]: 820 nM
EC50 [23]: 820 nM
EC50 [5]: 878 nM
EC50 [6]: 390 nM
EC50 [7]: 4750 nM
Ratio [8]: 2.4
EC50 [9]: 42 nM
EC50 [10]: 930 nM
Ratio [11]: >13
Ratio [12]: >13
EC50 [13]: > 5000 nM
Ratio [14]: 0.1
EC50 [15]: 895 nM
EC50 [24]: 400 nM
CC50 [25]: 5140 nM
bioavailability [26]: ≥ 84.6%
EC50 [27]: 820 nM
Ratio [16]: 12.2
EC50 [17]: 289 nM

SMILES: CC[C@@H](C)NS(=O)(=O)c1ccc(F)c(C(=O)Nc2ccc(F)c(F)c2)c1
EC50 [28]: 80 nM
EC90 [28]: 330 nM
CC50 [29]: > 10000 nM
CC50 [30]: > 10000 nM
CC50 [31]: > 10000 nM
EC50 [32]: 80 nM
EC90 [32]: 330 nM
CC50 [33]: > 10000 nM
EC50 [24]: 80 nM
EC90 [24]: 330 nM
EC50 [34]: 80 nM
EC90 [34]: 330 nM
CC50 [35]: > 10000 nM
EC50 [36]: 80 nM
EC90 [36]: 330 nM

SMILES: C#CCNC(=O)C(=O)c1c(C)c(C(=O)Nc2ccc(F)c(F)c2)n(C)c1C
bioavailability [39]: > 100%
CC50 [30]: > 10000 nM
IC50 [40]: 3 nM
half-life [41]: > 24 h
half-life [42]: > 24 h
half-life [43]: > 24 h

SMILES: CC(NS(=O)(=O)c1c2ncccc2c(C(=O)Nc2ccc(F)c(F)c2)n1C)C(F)(F)F (stereo unspecified)
CC50 [29]: > 30000 nM
IC50 [44]: < 1000 nM
EC50 [24]: 0.1 nM

SMILES: COC(=O)C1=C(C)NC(c2ncc(F)cc2F)=N[C@H]1c1ccc(F)cc1Cl
Ratio [1]: 3
Ratio [2]: 23.2
EC50 [3]: 3720 nM
Ratio [4]: 15.7
EC50 [5]: 451 nM
EC50 [6]: 149 nM
EC50 [7]: > 10000 nM
Ratio [8]: 28.7
EC50 [9]: 13 nM
EC50 [10]: 4280 nM
Ratio [11]: 25
Ratio [12]: >67
EC50 [13]: > 10000 nM
Ratio [14]: 0.09
EC50 [15]: 3450 nM
Ratio [16]: >67
EC50 [17]: 2330 nM

Further lines, with some results ahead:

IC50 [37]: 100 nM
IC50 [34]: 300 nM
SMILES: CCC(C)NS(=O)(=O)c1ccc(F)c(C(=O)Nc2ccc(F)c(F)c2)c1 (stereo unspecified)
CC50 [33]: > 50000 nM
CC50 [38]: > 50000 nM

EC50 [18]: 300 nM
SMILES: O=C1CCN(S(=O)(=O)c2cc(C(=O)Nc3cc(F)c(F)c(F)c3)ccc2F)CC1
selectivity ratio [19]: 24.7
CC50 [25]: 7410 nM

EC50 [18]: 350 nM
SMILES: O=C(Nc1cc(F)c(F)c(F)c1)c1ccc(F)c(S(=O)(=O)N2C[C@H]3CC[C@@H]2CC3O)c1 (stereo partly specified)
selectivity ratio [19]: 30.5
CC50 [25]: 10700 nM

EC50 [18]: 390 nM
SMILES: O=C1CC2CN(S(=O)(=O)c3cc(C(=O)Nc4cc(F)c(F)c(F)c4)ccc3F)CC2C1 (stereo unspecified)
selectivity ratio [19]: 48
CC50 [25]: 18700 nM

EC50 [18]: 220 nM
SMILES: O=C(Nc1cc(F)c(F)c(F)c1)c1ccc(F)c(S(=O)(=O)N2C[C@H]3CC[C@@H]2CC3=O)c1
selectivity ratio [19]: 33.7
CC50 [25]: 7410 nM

EC50 [18]: 250 nM
SMILES: O=C(Nc1cc(F)c(F)c(F)c1)c1ccc(F)c(S(=O)(=O)NC2CCC(O)CC2)c1 (stereo unspecified)
selectivity ratio [19]: 42.7
CC50 [25]: 10700 nM

EC50 [18]: < 1000 nM
SMILES: Cn1cc2c(c1C(=O)Nc1cc(F)c(F)c(F)c1)OCC1CN(C(=O)c3ncco3)CC1NS2(=O)=O (stereo unspecified)

EC50 [18]: 210 nM
SMILES: O=C(Nc1cc(F)c(F)c(F)c1)c1ccc(F)c(S(=O)(=O)N2CCC(=NO)CC2)c1
selectivity ratio [19]: 35.3
CC50 [25]: 7410 nM

EC50 [18]: 330 nM
SMILES: O=C(Nc1cc(F)c(F)c(F)c1)c1ccc(F)c(S(=O)(=O)N2CC3CC(O)CC3C2)c1 (stereo unspecified)
selectivity ratio [19]: 74.1
CC50 [25]: 22200 nM
